Experimental data reported in patent US20060148730A1, “Method of treating tuberculosis” (priority 2003, published 2006).
Converted amounts (≈) assume the structure as drawn. Like-named read-outs stand apart in the source and are kept apart here.

Tests used:
M. tuberculosis H37Rv [1] = assay: MIC vs. M. tuberculosis H37Rv, microplate Alamar Blue assay (MABA); type: cell-based; settings: for anti-TB activity / MIC in words: result in words
M. tuberculosis H37Rv [2] = settings: cited from earlier work
M. tuberculosis Erdman = type: in vivo, BALB/c mice
[3] = tested on: J774.1 macrophage cell line; assay: Cytotoxicity against J774.1 macrophage cell line; type: cell-based, murine; settings: Mus musculus
VERO cells = assay: Cytotoxicity against VERO cells (MTS, 72 hours); settings: for IC50: Chlorocebus sabaeus, Vero; for in vitro toxicity / cytotoxicity in words: result in words
[4] = Overt toxicity in mice, escalating 5-day dosing cycles; type: in vivo, Balb/C mice; settings: once daily, 5-day cycles, sequentially 200, 300, 400, 500 mg/kg
Description: Prior to assessing in vivo efficacy, RU66252 and RU69874 were administered to pairs of female Balb/C mice once daily for 5-day cycles, and observed for overt signs of toxicity (e.g., weight loss, ruffled fur, and huddling), after which the mice were rested for 1 or 2 days. Then the dosage was increased for another 5-day cycle. Overall, the same mice received sequentially for 5 days: 200, 300, 400, and 500 mg/kg.

[5] = Table 1a, 11,12-carbamate derivatives, anti-TB activity, read-out: MIC
[6] = Table 2a, 11,12-diols, anti-TB activity, read-out: MIC
[7] = Mycobacterium tuberculosis, H37RV, Table 1a, 11,12-carbamate derivatives, anti-TB activity, read-out: MIC

CC[C@H]1OC(=O)[C@H](C)[C@@H](O[C@H]2CC(C)(OC)[C@@H](O)[C@H](C)O2)[C@H](C)[C@@H](O[C@@H]2O[C@H](C)C[C@H](N(C)C)[C@H]2O)[C@](C)(OC)C[C@@H](C)C(=O)[C@H](C)[C@H]2N(CC/C=C\c3ccccc3)C(=O)O[C@]12C (stereo partly drawn) [ITR0020] gave an MIC (M. tuberculosis H37Rv [1]; Mycobacterium tuberculosis, H37RV, Table 4, read-out: MIC) of 6.6 µM (≈ 5.96 µg/mL).

In the case of NNC(=O)c1ccncc1 [Isoniazid], the “expected MIC range of positive quality control compound” value (M. tuberculosis H37Rv [2]) is listed as 0.025 to 0.1 µg/mL.

CCC1OC(=O)C(C)(F)C(=O)C(C)C(OC2OC(C)CC(N(C)C)C2O)C(C)(OC)CC(C)C(=O)C(C)C2N(NCCCc3ccnc4ccccc34)C(=O)OC12C (stereo not drawn) [RU3562] showed an MIC (M. tuberculosis H37Rv [1]; [5]) of 16 µM (≈ 13 µg/mL).

CC[C@H]1OC(=O)[C@H](C)C(=O)[C@H](C)[C@@H](O[C@@H]2O[C@H](C)C[C@H](N(C)C)[C@H]2O)[C@](C)(OC)C[C@@H](C)C(=NOCOCCOC)[C@H](C)[C@@H](O)[C@]1(C)O [RU54615] gave an MIC (M. tuberculosis H37Rv [1]; [6]) of over 128 µM.

CC[C@H]1OC(=O)[C@H](C)C(=O)[C@H](C)[C@@H](O[C@@H]2O[C@H](C)C[C@H](N(C)C)[C@H]2O)[C@](C)(OC)C[C@@H](C)C(=O)[C@H](C)[C@@H](O)[C@]1(C)O [RU56006] gave an MIC (M. tuberculosis H37Rv [1]; [6]) of over 128 µM.

With CC[C@H]1OC(=O)[C@H](C)C(=O)[C@H](C)[C@@H](O[C@@H]2O[C@H](C)C[C@H](N(C)C)[C@H]2O)[C@](C)(OC)C[C@@H](C)C(=O)[C@H](C)[C@H]2N(CCCCn3ccnc3)C(=O)O[C@]12C [RU61205] the MIC (M. tuberculosis H37Rv [1]; [5]) was 112 µM (≈ 82.3 µg/mL).

With CC[C@H]1OC(=O)[C@H](C)C(=O)[C@H](C)[C@@H](O[C@@H]2O[C@H](C)C[C@H](N(C)C)[C@H]2O)[C@](C)(OC)C[C@@H](C)C(=NOC2CCCN(C/C=C/c3ccc(-c4ccccc4)cc3)C2)[C@H](C)[C@@H](O)[C@]1(C)O (stereo partly drawn) [RU61804] the MIC (M. tuberculosis H37Rv [1]; [6]) was 0.5 µM (≈ 0.439 µg/mL) and the “anti-TB activity / MIC in words” value (M. tuberculosis H37Rv [1]) was “most potent of the tested 9-oxime compounds”.

CC[C@H]1OC(=O)[C@H](C)[C@@H](O[C@H]2CC(C)(OC)[C@@H](O)[C@H](C)O2)[C@H](C)[C@@H](O[C@@H]2O[C@H](C)C[C@H](N(C)C)[C@H]2O)[C@](C)(OC)C[C@@H](C)C(=O)[C@H](C)[C@H]2N(CCCCc3ccnc4ccccc34)C(=O)O[C@]12C (stereo partly drawn) [RU66080] showed an MIC (M. tuberculosis H37Rv [1]; [5]) of 0.44 µM (≈ 0.421 µg/mL).

With CC[C@H]1OC(=O)[C@H](C)C(OC2CC(C)(OC)[C@@H](O)[C@H](C)O2)[C@H](C)[C@@H](O[C@@H]2O[C@H](C)C[C@H](N(C)C)[C@H]2O)[C@](C)(OC)C[C@@H](C)C(=O)[C@H](C)[C@H]2N(NCCCc3ccnc4ccccc34)C(=O)O[C@]12C (stereo partly drawn) [RU66252] the “activity against M. tuberculosis in the acute phase of infection” value (M. tuberculosis Erdman; […], 100 and 200 mg/kg qd, untreated controls abnormally low) was “dose-dependent activity”, the “colonies on 10-2 dilution plates of lung homogenates” value (M. tuberculosis Erdman; treated mouse lung homogenates) was “no colonies” and the IC50 ([3]; J774.1, Table 1a, toxicity, read-out: J774 IC50) was 16.1 µM. For the same compound, the IC50 (VERO cells; read-out: Vero IC50) was 24.9 µM, the IC50 (VERO cells; read-out: toxicity based on VERO cells) was 25 µM and the “in vitro toxicity / cytotoxicity in words” value (VERO cells) was “comparable to clarithromycin”. For the same compound, the “signs of overt toxicity (weight loss, ruffled fur, huddling)” value [4] was “No signs of overt toxicity”, the “enhancement in potency of macrolide over counterpart ketolide” value (M. tuberculosis H37Rv [1]; MIC ratio ketolide/macrolide) was 16 fold and the MIC (M. tuberculosis H37Rv [1]; [7]) was 0.25 µM (≈ 0.239 µg/mL). It also gave an MIC (M. tuberculosis H37Rv [1]; Mycobacterium tuberculosis, H37RV, Table 3, parallel-synthesis carbazate library products, SPE purified, read-out: MIC) of 9 µM (≈ 8.61 µg/mL), an MIC (M. tuberculosis H37Rv [1]; Mycobacterium tuberculosis, H37RV, follow-up assays, read-out: MIC vs. M. tuberculosis in follow-up assays) of about 9 µM (≈ 8.61 µg/mL) and an MIC (M. tuberculosis H37Rv [1]; Mycobacterium tuberculosis, H37RV, read-out: minimum inhibitory concentration (MIC) against M. tuberculosis) of 0.25 µM (≈ 0.239 µg/mL). The “anti-TB activity / MIC in words” value (M. tuberculosis H37Rv [1]) was “very low”.

CC[C@H]1OC(=O)[C@H](C)C(=O)[C@H](C)[C@@H](O[C@@H]2O[C@H](C)C[C@H](N(C)C)[C@H]2O)[C@](C)(OC)C[C@@H](C)C(=O)[C@H](C)[C@H]2N(CCCn3cnc4c3c(=O)n(C)c(=O)n4C)C(=O)O[C@]12C [RU66740] showed an MIC (M. tuberculosis H37Rv [1]; [5]) of over 128 µM.

For CC[C@H]1OC(=O)[C@H](C)[C@@H](O[C@H]2C[C@@](C)(OC)[C@@H](O)[C@H](C)O2)[C@H](C)[C@@H](O[C@@H]2O[C@H](C)C[C@H](N(C)C)[C@H]2O)[C@](C)(OC)C[C@@H](C)C(=O)[C@H](C)[C@H]2N(CCCCn3cnc(-c4cccnc4)c3)C(=O)O[C@]12C [RU69874], the “in vitro toxicity / cytotoxicity in words” value (VERO cells) was “comparable to clarithromycin”, the “signs of overt toxicity (weight loss, ruffled fur, huddling)” value [4] was “No signs of overt toxicity” and the “anti-TB activity / MIC in words” value (M. tuberculosis H37Rv [1]) was “very low”.

CC[C@H]1OC(=O)[C@H](C)C(=O)[C@H](C)[C@@H](O[C@@H]2O[C@H](C)C[C@H](N(C)C)[C@H]2O)[C@](C)(OC)C[C@@H](C)C(=O)[C@H](C)[C@H]2N(NCCc3ccccc3)C(=O)O[C@]12C [RU70645] showed an MIC (M. tuberculosis H37Rv [1]; [5]) of 14 µM (≈ 10.2 µg/mL).

With CC[C@H]1OC(=O)[C@H](C)C(=O)[C@H](C)[C@@H](O[C@@H]2O[C@H](C)C[C@H](N(C)C)[C@H]2O)[C@](C)(OC)C[C@@H](C)C(=O)[C@H](C)[C@H]2N(CCCCn3cnc(-c4cccnc4)c3)C(=O)O[C@]12C [Telithromycin, reference compound] the IC50 ([3]; J774.1, read-out: J774 IC50) was 102 µM, the IC50 ([3]; J774.1, read-out: toxicity based on J774 cells) was 102 µM and the MIC (M. tuberculosis H37Rv [1]; [7]) was 48 µM (≈ 39 µg/mL). For the same compound, the “anti-TB activity / MIC in words” value (M. tuberculosis H37Rv [1]) was “less active than clarithromycin”.

With “cethromycin [ABT773, reference compound]” the “MIC against M. tuberculosis” value (M. tuberculosis H37Rv [1]) was 3 µM and the MIC (M. tuberculosis H37Rv [1]; [5]) was 3 µM.
